Measured values taken from PMC5087326 (Biochemical and biophysical research communications, 2016).

Legend:
[1] = molecular target: T1, LXRα (Homo sapiens, UniProt Q13133); experiment: Luminex coregulator peptide recruitment with LXRα LBD at […]; format: cell-based
T1 sequence (Q13133 209-447 limits assumed): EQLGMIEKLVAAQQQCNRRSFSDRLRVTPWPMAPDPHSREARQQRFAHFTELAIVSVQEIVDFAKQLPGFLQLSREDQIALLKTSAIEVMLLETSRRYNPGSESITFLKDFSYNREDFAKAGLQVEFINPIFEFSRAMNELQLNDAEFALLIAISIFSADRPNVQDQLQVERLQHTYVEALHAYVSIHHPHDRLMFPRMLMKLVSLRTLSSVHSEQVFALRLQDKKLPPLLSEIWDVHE

[2] = molecular target: T2, LXRβ (Homo sapiens, UniProt P55055); experiment: LXRE-driven luciferase cotransfection assay in HEK293 cells; format: cell-based
T2 sequence (P55055 1-460): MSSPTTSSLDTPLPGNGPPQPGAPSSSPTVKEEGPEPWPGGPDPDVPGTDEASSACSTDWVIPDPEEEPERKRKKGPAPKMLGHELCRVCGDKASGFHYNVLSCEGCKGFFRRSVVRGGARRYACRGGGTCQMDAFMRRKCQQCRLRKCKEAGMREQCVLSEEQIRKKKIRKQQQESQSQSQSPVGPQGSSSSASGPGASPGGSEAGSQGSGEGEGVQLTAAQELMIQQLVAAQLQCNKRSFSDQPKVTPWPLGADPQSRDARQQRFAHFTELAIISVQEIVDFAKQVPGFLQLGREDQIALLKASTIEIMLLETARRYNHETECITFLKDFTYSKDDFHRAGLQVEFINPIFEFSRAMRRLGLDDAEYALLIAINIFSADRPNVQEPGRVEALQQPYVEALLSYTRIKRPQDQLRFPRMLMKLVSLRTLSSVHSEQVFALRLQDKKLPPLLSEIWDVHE

- IC50 [1]: 17 nM
- IC50 [2]: 9 nM
SMILES: Cc1cc(C)c(S(=O)(=O)N(Cc2ccc(-c3cccc(S(C)(=O)=O)c3)cc2)Cc2ccc(C(F)(F)F)o2)c(C)c1 [GSK2033]
